# Results as given in patent US9012492B2, “Apocynin-lipoic acid conjugates and uses thereof” (priority 2011, dated 2015).
# Experiments:
# rat liver microsomes = assay: Metabolic stability using rat liver microsomes; format: in vitro ADME; details: RLM
# Excerpt: Table 7 summarizes the experimental conditions used in the studies of the metabolic stability of the compound of Formula (Ia) using rat liver microsomes. Table 8 and FIG. 13 show the results from the studies of the metabolic stability of the compound of Formula (Ia) using rat liver microsomes. [table]
# [1] = Stability in sodium phosphate buffer (HPLC); format: physicochemical; details: for stability in sodium phosphate buffer: 50 mM, HPLC; for half-life: buffer without microsomes and without NADPH; for half-life / % Metabolism in 30 minutes / CLintr (mL/min/g liver): matrix buffer (no microsomes, no NADPH)
# Description: The stability of the compound of Formula (Ia) in a sodium phosphate buffer (50 mM, pH 7.4) was evaluated using HPLC. […] Area counts of apocynin and lipoid acid were found in 0 minute samples and were generally constant until the last time point measured (see: FIGS. 11-12 and Tables 5-6).
# Sprague-Dawley rats = assay: Infarct volume after permanent (6 h) middle cerebral artery occlusion; format: in vivo, rat; details: 0.1 or 1.0 mg/kg iv 30 min prior to 6 h permanent occlusion (no reperfusion)
# Excerpt: The detailed methodology for permanent middle cerebral artery occlusion (MCAO) and transient (I/R) occlusion of the middle cerebral artery has been published previously.^46 Briefly, animals were placed in a David Kopf stereotaxic frame (Tujunga, Calif.), and the right middle cerebral artery (MCA) approached through a rostral-caudal incision of the skin and frontalis muscle at the approximate level of bregma. Blood flow through the MCA was impeded by the placement of surgical suture behind the MCA at three designated positions along the exposed vessel. […] The concentration of 0.1 mg/kg represents the optimal dose of the compound of Formula (Ia), as determined above, and 1.0 mg/kg represents a 10-fold higher concentration of the optimal dose, as the optimal dose of 0.1 mg/kg was not effective in producing neuroprotection. […] At the end of each experiment in which infarct volume was measured, animals were transcardially perfused with PBS (0.1 M; 200 ml), the brains were removed and sliced into 1-mm coronal sections using a rat brain matrix (Harvard Apparatus, Holliston, Mass.). […] Infarct volumes were calculated with the use of scanned digital images of each brain section. The infarct area for both sides of each brain section was calculated using a computer-assisted imaging system (Scion, Frederick, Md.). […]
structure (smiles),measurement,setting,value
COc1cc(C(C)=O)ccc1OC(=O)CCCCC1CCSS1 (stereo not drawn) [compound of Formula (Ia)],% Metabolism in 30 minutes,rat liver microsomes; control (without NADPH),0%
same,CLintr (mL/min/g liver),rat liver microsomes; control (without NADPH),>67 mL/min/g liver
same,% Metabolism in 30 minutes,rat liver microsomes; reaction (with NADPH),0%
same,CLintr (mL/min/g liver),rat liver microsomes; reaction (with NADPH),>67 mL/min/g liver
same,% Remaining,"[1]; 0.5 μM in sodium phosphate buffer (50 mM, pH 7.4), 0 min, Set-1",100%
same,% Remaining,"[1]; 0.5 μM in sodium phosphate buffer (50 mM, pH 7.4), 3 min, Set-1",64%
same,% Remaining,"[1]; 0.5 μM in sodium phosphate buffer (50 mM, pH 7.4), 6 min, Set-1",50%
same,% Remaining,"[1]; 0.5 μM in sodium phosphate buffer (50 mM, pH 7.4), 9 min, Set-1",55%
same,% Remaining,"[1]; 0.5 μM in sodium phosphate buffer (50 mM, pH 7.4), 12 min, Set-1",50%
same,% Remaining,"[1]; 0.5 μM in sodium phosphate buffer (50 mM, pH 7.4), 15 min, Set-1",50%
same,% Remaining,"[1]; 0.5 μM in sodium phosphate buffer (50 mM, pH 7.4), 18 min, Set-1",50%
same,% Remaining,"[1]; 0.5 μM in sodium phosphate buffer (50 mM, pH 7.4), 21 min, Set-1",73%
same,% Remaining,"[1]; 0.5 μM in sodium phosphate buffer (50 mM, pH 7.4), 27 min, Set-1",64%
same,% Remaining,"[1]; 0.5 μM in sodium phosphate buffer (50 mM, pH 7.4), 30 min, Set-1",77%
same,stability in sodium phosphate buffer,"[1]; 0.5 μM, pH 7.4",stable
same,% Remaining,"[1]; 10 μM in sodium phosphate buffer (50 mM, pH 7.4), 0 min, Set-1",100%
same,% Remaining,"[1]; 10 μM in sodium phosphate buffer (50 mM, pH 7.4), 3 min, Set-1",83%
same,% Remaining,"[1]; 10 μM in sodium phosphate buffer (50 mM, pH 7.4), 6 min, Set-1",73%
same,% Remaining,"[1]; 10 μM in sodium phosphate buffer (50 mM, pH 7.4), 9 min, Set-1",83%
same,% Remaining,"[1]; 10 μM in sodium phosphate buffer (50 mM, pH 7.4), 12 min, Set-1",73%
same,% Remaining,"[1]; 10 μM in sodium phosphate buffer (50 mM, pH 7.4), 15 min, Set-1",74%
same,% Remaining,"[1]; 10 μM in sodium phosphate buffer (50 mM, pH 7.4), 18 min, Set-1",71%
same,% Remaining,"[1]; 10 μM in sodium phosphate buffer (50 mM, pH 7.4), 21 min, Set-1",76%
same,% Remaining,"[1]; 10 μM in sodium phosphate buffer (50 mM, pH 7.4), 27 min, Set-1",57%
same,% Remaining,"[1]; 10 μM in sodium phosphate buffer (50 mM, pH 7.4), 30 min, Set-1",79%
same,stability in sodium phosphate buffer,"[1]; 10 μM, pH 7.4",stable
same,half-life,[1]; DLM/HLM study,23 min
same,half-life,[1]; rat liver microsome study,> 30 min
same,% Remaining,"[1]; buffer, 0 h, 0.5 μM, pH 7.4",100%
same,"Apocynin area counts, % Remaining","[1]; buffer, 0 h, 0.5 μM, pH 7.4",100%
same,"Lipoic acid area counts, % Remaining","[1]; buffer, 0 h, 0.5 μM, pH 7.4",100%
same,% Remaining,"[1]; buffer, 0 h, 10 μM, pH 7.4",100%
same,"Apocynin area counts, % Remaining","[1]; buffer, 0 h, 10 μM, pH 7.4",100%
same,"Lipoic acid area counts, % Remaining","[1]; buffer, 0 h, 10 μM, pH 7.4",100%
same,% Remaining,"[1]; buffer, 0.05 h, 0.5 μM, pH 7.4",71%
same,"Apocynin area counts, % Remaining","[1]; buffer, 0.05 h, 0.5 μM, pH 7.4",78%
same,"Lipoic acid area counts, % Remaining","[1]; buffer, 0.05 h, 0.5 μM, pH 7.4",103%
same,% Remaining,"[1]; buffer, 0.05 h, 10 μM, pH 7.4",92%
same,"Apocynin area counts, % Remaining","[1]; buffer, 0.05 h, 10 μM, pH 7.4",96%
same,"Lipoic acid area counts, % Remaining","[1]; buffer, 0.05 h, 10 μM, pH 7.4",100%
same,% Remaining,"[1]; buffer, 0.1 h, 0.5 μM, pH 7.4",59%
same,"Apocynin area counts, % Remaining","[1]; buffer, 0.1 h, 0.5 μM, pH 7.4",68%
same,"Lipoic acid area counts, % Remaining","[1]; buffer, 0.1 h, 0.5 μM, pH 7.4",99%
same,% Remaining,"[1]; buffer, 0.1 h, 10 μM, pH 7.4",80%
same,"Apocynin area counts, % Remaining","[1]; buffer, 0.1 h, 10 μM, pH 7.4",91%
same,"Lipoic acid area counts, % Remaining","[1]; buffer, 0.1 h, 10 μM, pH 7.4",105%
same,% Remaining,"[1]; buffer, 0.15 h, 0.5 μM, pH 7.4",47%
same,"Apocynin area counts, % Remaining","[1]; buffer, 0.15 h, 0.5 μM, pH 7.4",65%
same,"Lipoic acid area counts, % Remaining","[1]; buffer, 0.15 h, 0.5 μM, pH 7.4",91%
same,% Remaining,"[1]; buffer, 0.15 h, 10 μM, pH 7.4",87%
same,"Apocynin area counts, % Remaining","[1]; buffer, 0.15 h, 10 μM, pH 7.4",94%
same,"Lipoic acid area counts, % Remaining","[1]; buffer, 0.15 h, 10 μM, pH 7.4",113%
same,% Remaining,"[1]; buffer, 0.2 h, 0.5 μM, pH 7.4",53%
same,"Apocynin area counts, % Remaining","[1]; buffer, 0.2 h, 0.5 μM, pH 7.4",71%
same,"Lipoic acid area counts, % Remaining","[1]; buffer, 0.2 h, 0.5 μM, pH 7.4",89%
same,% Remaining,"[1]; buffer, 0.2 h, 10 μM, pH 7.4",76%
same,"Apocynin area counts, % Remaining","[1]; buffer, 0.2 h, 10 μM, pH 7.4",95%
same,"Lipoic acid area counts, % Remaining","[1]; buffer, 0.2 h, 10 μM, pH 7.4",118%
same,% Remaining,"[1]; buffer, 0.25 h, 0.5 μM, pH 7.4",65%
same,"Apocynin area counts, % Remaining","[1]; buffer, 0.25 h, 0.5 μM, pH 7.4",68%
same,"Lipoic acid area counts, % Remaining","[1]; buffer, 0.25 h, 0.5 μM, pH 7.4",106%
same,% Remaining,"[1]; buffer, 0.25 h, 10 μM, pH 7.4",72%
same,"Apocynin area counts, % Remaining","[1]; buffer, 0.25 h, 10 μM, pH 7.4",86%
same,"Lipoic acid area counts, % Remaining","[1]; buffer, 0.25 h, 10 μM, pH 7.4",114%
same,% Remaining,"[1]; buffer, 0.3 h, 0.5 μM, pH 7.4",59%
same,"Apocynin area counts, % Remaining","[1]; buffer, 0.3 h, 0.5 μM, pH 7.4",70%
same,"Lipoic acid area counts, % Remaining","[1]; buffer, 0.3 h, 0.5 μM, pH 7.4",96%
same,% Remaining,"[1]; buffer, 0.3 h, 10 μM, pH 7.4",71%
same,"Apocynin area counts, % Remaining","[1]; buffer, 0.3 h, 10 μM, pH 7.4",80%
same,"Lipoic acid area counts, % Remaining","[1]; buffer, 0.3 h, 10 μM, pH 7.4",121%
same,% Remaining,"[1]; buffer, 0.35 h, 0.5 μM, pH 7.4",76%
same,"Apocynin area counts, % Remaining","[1]; buffer, 0.35 h, 0.5 μM, pH 7.4",82%
same,"Lipoic acid area counts, % Remaining","[1]; buffer, 0.35 h, 0.5 μM, pH 7.4",117%
same,% Remaining,"[1]; buffer, 0.35 h, 10 μM, pH 7.4",69%
same,"Apocynin area counts, % Remaining","[1]; buffer, 0.35 h, 10 μM, pH 7.4",82%
same,"Lipoic acid area counts, % Remaining","[1]; buffer, 0.35 h, 10 μM, pH 7.4",127%
same,% Remaining,"[1]; buffer, 0.45 h, 0.5 μM, pH 7.4",71%
same,"Apocynin area counts, % Remaining","[1]; buffer, 0.45 h, 0.5 μM, pH 7.4",79%
same,"Lipoic acid area counts, % Remaining","[1]; buffer, 0.45 h, 0.5 μM, pH 7.4",119%
same,% Remaining,"[1]; buffer, 0.45 h, 10 μM, pH 7.4",64%
same,"Apocynin area counts, % Remaining","[1]; buffer, 0.45 h, 10 μM, pH 7.4",80%
same,"Lipoic acid area counts, % Remaining","[1]; buffer, 0.45 h, 10 μM, pH 7.4",134%
same,% Remaining,"[1]; buffer, 0.5 h, 0.5 μM, pH 7.4",94%
same,"Apocynin area counts, % Remaining","[1]; buffer, 0.5 h, 0.5 μM, pH 7.4",85%
same,"Lipoic acid area counts, % Remaining","[1]; buffer, 0.5 h, 0.5 μM, pH 7.4",151%
same,% Remaining,"[1]; buffer, 0.5 h, 10 μM, pH 7.4",71%
same,"Apocynin area counts, % Remaining","[1]; buffer, 0.5 h, 10 μM, pH 7.4",78%
same,"Lipoic acid area counts, % Remaining","[1]; buffer, 0.5 h, 10 μM, pH 7.4",141%
same,% Metabolism in 30 minutes,[1]; DLM/HLM study,34%
same,CLintr (mL/min/g liver),[1]; DLM/HLM study,3.2 mL/min/g liver
same,% Metabolism in 30 minutes,[1]; rat liver microsome study,21%
same,CLintr (mL/min/g liver),[1]; rat liver microsome study,2.3 mL/min/g liver
same,neuroprotection (infarct volume) in permanent MCAO,Sprague-Dawley rats,did not produce neuroprotection
